# According to patent US12209102B2, “Heterocyclic compounds and uses thereof” (Kumquat Biosciences Inc., priority 2022, dated 2025):
# pIC50: −log10 of the molar value.
# Legend:
# GP2D cells = experiment: Ras cellular assay, growth of cells with K-Ras G12D mutation (CellTiter-Glo); format: cell-based; conditions: cell growth, Example 9, G12D mutation, read-out: IC50 against GP2D cells
# K-Ras G12D = target: T1, K-Ras G12D (Homo sapiens, UniProt P01116, G12D); experiment: HTRF resonance energy transfer assay, K-Ras G12D / SOS1 interaction; format: biochemical; conditions: HTRF assay of Example 5; read-out: IC50 against K-Ras G12D
# T1 construct: made in house; host or cells: E. coli BL21 (DE3)
# T1 sequence (P01116 1-188 isoform P01116-2 G12D): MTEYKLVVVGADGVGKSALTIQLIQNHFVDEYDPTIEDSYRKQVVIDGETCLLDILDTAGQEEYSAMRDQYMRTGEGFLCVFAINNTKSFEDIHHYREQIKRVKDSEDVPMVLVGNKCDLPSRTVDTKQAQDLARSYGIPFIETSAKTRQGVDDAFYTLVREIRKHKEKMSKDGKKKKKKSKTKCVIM
# How it was run: (§1)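 GST-tagged K-Ras (WT or mutant) bound to anti-GST-Eu donor was mixed with His-hSOS1 bound to anti-6His-XL665 acceptor in ~5 mM HEPES pH 7.4, 150 mM NaCl, 1 mM DTT, 0.05% BSA, 0.0025% Igepal. HTRF (ex 337, em 620/665 nm) was read after ~10 min or longer. IC50 came from the 665/620 ratio over duplicates from 10 μM to 0.01 μM.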
# A549 cells = experiment: Ras cellular assay, growth of cells with K-Ras G12S mutation (CellTiter-Glo); format: cell-based; conditions: Homo sapiens, cell growth, Example 9, G12S mutation, read-out: IC50 against A549 cells
# How it was run: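 A549 cells (K-Ras G12S) in RPMI-1640 with 10% heat-inactivated FBS, seeded e.g. 800 per well in standard or ultra-low-attachment 384-well plates, treated next day with a dilution series (e.g. 10-point, 3-fold). Viability by CellTiter-Glo luminescence about 6 days later; IC50 from four-parameter fit.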
# K-Ras G12V = target: T2, K-Ras G12V (Homo sapiens, UniProt P01116, G12V); experiment: HTRF resonance energy transfer assay, K-Ras G12V / SOS1 interaction; format: biochemical; conditions: HTRF assay of Example 5; read-out: IC50 against K-Ras G12V
# T2 construct: made in house; host or cells: E. coli BL21 (DE3)
# T2 sequence (P01116 1-188 isoform P01116-2 G12V): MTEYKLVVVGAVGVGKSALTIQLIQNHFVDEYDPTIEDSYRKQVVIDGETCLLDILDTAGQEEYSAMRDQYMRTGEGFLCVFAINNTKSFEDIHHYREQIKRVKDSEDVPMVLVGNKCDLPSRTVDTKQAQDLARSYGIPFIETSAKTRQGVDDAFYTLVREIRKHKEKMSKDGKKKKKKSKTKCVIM
# How it was run: as §1
# SW620 cells = experiment: Ras cellular assay, growth of cells with K-Ras G12V mutation (CellTiter-Glo); format: cell-based; conditions: Homo sapiens, SW-620; cell growth, Example 9, G12V mutation; read-out: IC50 against SW620 cells
# How it was run: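 SW620 (K-Ras G12V) cells, e.g. 800/well in RPMI-1640 with 10% heat-inactivated FBS on standard or ultra-low attachment plates, were dosed the day after plating with e.g. a 10-point 3-fold series. Viability by CellTiter-Glo luminescence about 6 days later; IC50 from four-parameter fit.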
# K-Ras WT = target: T3, K-Ras WT (Homo sapiens, UniProt P01116); experiment: HTRF resonance energy transfer assay, K-Ras WT / SOS1 interaction; format: biochemical; conditions: HTRF assay of Example 5; read-out: IC50 against K-Ras WT
# T3 construct: made in house; host or cells: E. coli BL21 (DE3)
# T3 sequence (P01116 1-188 isoform P01116-2): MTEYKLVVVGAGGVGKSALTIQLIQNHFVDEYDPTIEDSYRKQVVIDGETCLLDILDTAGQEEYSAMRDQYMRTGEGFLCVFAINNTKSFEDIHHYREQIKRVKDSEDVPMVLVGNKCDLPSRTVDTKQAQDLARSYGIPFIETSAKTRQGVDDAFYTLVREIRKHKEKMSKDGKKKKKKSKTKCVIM
# How it was run: as §1
# K-Ras G12S = target: T4, K-Ras G12S (Homo sapiens, UniProt P01116, G12S); experiment: HTRF resonance energy transfer assay, K-Ras G12S / SOS1 interaction; format: biochemical; conditions: HTRF assay of Example 5; read-out: IC50 against K-Ras G12S
# T4 construct: made in house; host or cells: E. coli BL21 (DE3)
# T4 sequence (P01116 1-188 isoform P01116-2 G12S): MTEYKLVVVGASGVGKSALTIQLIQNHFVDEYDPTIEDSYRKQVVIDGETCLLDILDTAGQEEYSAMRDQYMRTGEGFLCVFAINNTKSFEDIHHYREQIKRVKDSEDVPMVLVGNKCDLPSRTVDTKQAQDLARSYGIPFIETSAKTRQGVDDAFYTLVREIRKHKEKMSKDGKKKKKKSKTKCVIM
# How it was run: as §1
Compound,pIC50 (GP2D cells),pIC50 (K-Ras G12D),pIC50 (A549 cells),pIC50 (K-Ras G12V),pIC50 (SW620 cells),pIC50 (K-Ras WT),pIC50 (K-Ras G12S)
"N#Cc1c(N)sc2c(F)ccc(-c3c(Cl)c4c5c(nc(OC[C@@]67CCCN6C[C@H](F)C7)nc5c3F)N(CC3CC3C#N)[C@@H](C3(O)CC3)CO4)c12 (single isomer, unassigned) [Compound 942]",> 6.30,–,–,–,–,–,–
"N#Cc1c(N)sc2c(F)ccc(-c3c(Cl)c4c5c(nc(OC[C@@]67CCCN6C[C@H](F)C7)nc5c3F)N(C3CCCCC3O)CCO4)c12 (stereo partly drawn) [Compound 602, 2-amino-4-(8-chloro-10-fluoro-2-(((2R,7aS)-2-fluorotetrahydro-1H-pyrrolizin-7a(5H)-yl)methoxy)-4-(2-hydroxycyclohexyl)-5,6-dihydro-4H-[1,4]oxazepino[5,6,7-de]quinazolin-9-yl)-7-fluorobenzo[b]thiophene-3-carbonitrile]",> 6.30,–,–,–,–,–,–
"C[C@H]1COc2c(Cl)c(-c3ccc(F)c4sc(N)c(C#N)c34)c(F)c3nc(OC[C@@]45CCCN4C[C@H](F)C5)nc(c23)N1C1CCOC1 (stereo partly drawn) [Compound 647, 2-amino-4-((5S)-8-chloro-10-fluoro-2-(((2R,7aS)-2-fluorotetrahydro-1H-pyrrolizin-7a(5H)-yl)methoxy)-5-methyl-4-(tetrahydrofuran-3-yl)-5,6-dihydro-4H-[1,4]oxazepino[5,6,7-de]quinazolin-9-yl)-7-fluorobenzo[b]thiophene-3-carbonitrile]",> 6.30,–,–,–,–,–,–
"N#Cc1c(N)sc2c(F)ccc(-c3c(Cl)c4c5c(nc(OC[C@@]67CCCN6C[C@H](F)C7)nc5c3F)N(C3CCC5(C3)CN(C(=O)C3CC3)C5)CCO4)c12 (stereo partly drawn) [Compound 650, 2-amino-4-(8-chloro-4-(2-(cyclopropanecarbonyl)-2-azaspiro[3.4]octan-6-yl)-10-fluoro-2-(((2R,7aS)-2-fluorotetrahydro-1H-pyrrolizin-7a(5H)-yl)methoxy)-5,6-dihydro-4H-[1,4]oxazepino[5,6,7-de]quinazolin-9-yl)-7-fluorobenzo[b]thiophene-3-carbonitrile]",> 6.30,–,–,–,–,–,–
"C[C@H]1COc2c(Cl)c(-c3ccc(F)c4sc(N)c(C#N)c34)c(F)c3nc(OC[C@@]45CCCN4C[C@H](F)C5)nc(c23)N1CC1CC1C#N (stereo partly drawn) [Compound 731, 2-amino-4-((5S)-8-chloro-4-((2-cyanocyclopropyl)methyl)-10-fluoro-2-(((2R,7aS)-2-fluorotetrahydro-1H-pyrrolizin-7a(5H)-yl)methoxy)-5-methyl-5,6-dihydro-4H-[1,4]oxazepino[5,6,7-de]quinazolin-9-yl)-7-fluorobenzo[b]thiophene-3-carbonitrile]",> 6.30,–,–,–,–,–,–
"N#Cc1c(N)sc2c(F)ccc(-c3c(Cl)c4c5c(nc(OC[C@@]67CCCN6C[C@H](F)C7)nc5c3F)N(C3CCOC3)[C@@H](C(F)F)CO4)c12 (stereo partly drawn) [Compound 871, 2-amino-4-((5R)-8-chloro-5-(difluoromethyl)-10-fluoro-2-(((2R,7aS)-2-fluorotetrahydro-1H-pyrrolizin-7a(5H)-yl)methoxy)-4-(tetrahydrofuran-3-yl)-5,6-dihydro-4H-[1,4]oxazepino[5,6,7-de]quinazolin-9-yl)-7-fluorobenzo[b]thiophene-3-carbonitrile]",> 6.30,–,–,–,–,–,–
"N#Cc1c(N)sc2c(F)ccc(-c3c(Cl)c4c5c(nc(OC[C@@]67CCCN6C[C@H](F)C7)nc5c3F)N(CC3CC3C#N)[C@@H](C(F)F)CO4)c12 (stereo partly drawn) [Compound 938, 2-amino-4-((5R)-8-chloro-4-((2-cyanocyclopropyl)methyl)-5-(difluoromethyl)-10-fluoro-2-(((2R,7aS)-2-fluorotetrahydro-1H-pyrrolizin-7a(5H)-yl)methoxy)-5,6-dihydro-4H-[1,4]oxazepino[5,6,7-de]quinazolin-9-yl)-7-fluorobenzo[b]thiophene-3-carbonitrile]",> 6.30,–,–,–,–,–,–
"N#Cc1c(N)sc2c(F)ccc(-c3c(Cl)c4c5c(nc(OC[C@@]67CCCN6C[C@H](F)C7)nc5c3F)N(C3CC(NC=O)C3)CCO4)c12 (stereo partly drawn) [Compound 988, N-(3-(9-(2-amino-3-cyano-7-fluorobenzo[b]thiophen-4-yl)-8-chloro-10-fluoro-2-(((2R,7aS)-2-fluorotetrahydro-1H-pyrrolizin-7a(5H)-yl)methoxy)-5,6-dihydro-4H-[1,4]oxazepino[5,6,7-de]quinazolin-4-yl)cyclobutyl)formamide]",> 6.30,–,–,–,–,–,–
"N#Cc1c(N)sc2c(F)ccc(-c3c(Cl)c4c5c(nc(OC[C@@]67CCCN6C[C@H](F)C7)nc5c3F)N(CC(F)F)CC(C3CC3)O4)c12 (stereo partly drawn) [Compound 1128, 2-amino-4-(8-chloro-6-cyclopropyl-4-(2,2-difluoroethyl)-10-fluoro-2-(((2R,7aS)-2-fluorotetrahydro-1H-pyrrolizin-7a(5H)-yl)methoxy)-5,6-dihydro-4H-[1,4]oxazepino[5,6,7-de]quinazolin-9-yl)-7-fluorobenzo[b]thiophene-3-carbonitrile]",–,> 7.00,> 5.30,> 7.00,> 5.30,> 7.00,> 7.00
"COCCN1CCCOc2c(Cl)c(-c3ccc(F)c4sc(N)c(C#N)c34)c(F)c3nc(OC[C@@]45CCCN4C[C@H](F)C5)nc1c23 [Compound 1201, 2-amino-4-(9-chloro-11-fluoro-2-(((2R,7aS)-2-fluorotetrahydro-1H-pyrrolizin-7a(5H)-yl)methoxy)-4-(2-methoxyethyl)-4,5,6,7-tetrahydro-[1,5]oxazocino[4,3,2-de]quinazolin-10-yl)-7-fluorobenzo[b]thiophene-3-carbonitrile]",–,> 7.00,> 5.30,> 7.00,> 5.30,> 7.00,> 7.00
"N#Cc1c(N)sc2c(F)ccc(-c3c(Cl)c4c5c(nc(OC[C@@]67CCCN6C[C@H](F)C7)nc5c3F)N(C3CCOC3)CCCO4)c12 (stereo partly drawn) [Compound 1205, 2-amino-4-(9-chloro-11-fluoro-2-(((2R,7aS)-2-fluorotetrahydro-1H-pyrrolizin-7a(5H)-yl)methoxy)-4-(tetrahydrofuran-3-yl)-4,5,6,7-tetrahydro-[1,5]oxazocino[4,3,2-de]quinazolin-10-yl)-7-fluorobenzo[b]thiophene-3-carbonitrile]",–,> 7.00,> 5.30,> 7.00,> 5.30,> 7.00,> 7.00
"CC1COc2c(Cl)c(-c3ccc(F)c4sc(N)c(C#N)c34)c(F)c3nc(OC[C@@]45CCCN4C[C@H](F)C5)nc(c23)N(C)[C@@H]1C (stereo partly drawn) [Compound 1206, 2-amino-4-((5R)-9-chloro-11-fluoro-2-(((2R,7aS)-2-fluorotetrahydro-1H-pyrrolizin-7a(5H)-yl)methoxy)-4,5,6-trimethyl-4,5,6,7-tetrahydro-[1,5]oxazocino[4,3,2-de]quinazolin-10-yl)-7-fluorobenzo[b]thiophene-3-carbonitrile]",–,> 7.00,> 5.30,> 7.00,> 5.30,> 7.00,> 7.00
"CC1CCOc2c(Cl)c(-c3ccc(F)c4sc(N)c(C#N)c34)c(F)c3nc(OC[C@@]45CCCN4C[C@H](F)C5)nc(c23)N1C1CC1 (stereo partly drawn) [Compound 1215, 2-amino-4-(9-chloro-4-cyclopropyl-11-fluoro-2-(((2R,7aS)-2-fluorotetrahydro-1H-pyrrolizin-7a(5H)-yl)methoxy)-5-methyl-4,5,6,7-tetrahydro-[1,5]oxazocino[4,3,2-de]quinazolin-10-yl)-7-fluorobenzo[b]thiophene-3-carbonitrile]",–,> 7.00,> 5.30,> 7.00,> 5.30,> 7.00,> 7.00
